The text below walks through data of PMC9468151, “Identification of a binding site on soluble RANKL that can be targeted to inhibit soluble RANK-RANKL interactions and treat osteoporosis” (Nature Communications, 2022).

Holding throughout (format): cell-based, mouse
The subject of series [1] is RAW264.7 cells. The experiment in a line: In vitro cytotoxicity assay (MTT). To be noted: RAW264.7, MTT. How it is done: MTT assay was used to determine cell viability. RAW264.7 cells in the logarithmic growth phase were cultured in 96-well plates with 6 × 10^3 cells in each well and incubated for 24 h. The surviving cells were then determined by MTT method. […] Cell growth inhibition ratio was calculated as follows: Cellgrowthinhibitionratio%=ODvehicle−ODtreaed/ODvehicle×100%
Cell cytotoxicity CC50 value were conducted by using Nonlinear regression (curve fit) analytic procedure in GraphPad Prism 8.

The subject of series [2] is sRANKL induced osteoclast differentiation. The experiment in a line: In vitro anti-osteoclastogenesis activity determination (TRAP staining). The note with it: for IC50: BMMs, M-CSF + 100 ng/mL sRANKL, 5 days, TRAP staining, read-out: OC IC50 (anti-osteoclastogenesis activity); for inhibition of osteoclastogenesis, dose-response (fig. S2a): three replicate columns. Also on record: key to inhibition of osteoclastogenesis, dose-response (fig. S2a): % inhibition = 100 − (treated−unstimulated)/(untreated−unstimulated)×100. How it is done:
(§1) Mouse osteoclasts were cultured according to the previously reported protocols. BMMs were plated in 96-well plates at a density of 6 × 10^3 cells/well with complete medium containing 10 ng/mL M-CSF. The following day, cells were then stimulated with 100 ng/mL sRANKL in the presence or absence of compounds with different concentrations every 2 days until osteoclasts formed. In order to calculate IC50, we set 9 concentrations for each compound and untreated and non-sRANKL unstimulating group as controls, each with triplicated repeated wells. After 5 days, cells were fixed with 4% paraformaldehyde and then applied TRAP-staining to identify osteoclasts by using the TRAP-staining kit. Osteoclasts number (OC No.) in each well was counted and the percentage of inhibition ratio was calculated as follows:1 OCinhibitoryratio%=100−OCNo.treated−OCNo.unstimulating/OCNo.untreated−OCNo.unstimulating×100%
The dosages and their correspondent osteoclastogenesis inhibitory activity curve and IC50 value were conducted by using Nonlinear regression (curve fit) analytic procedure in GraphPad Prism 8. Photographs of individual wells were taken using Leica microscope.

The test system of series [3] is BMM cells. The experiment in a line: Osteoclastogenic assay of WT, single-point mutated sRANKL and L-RANKL. To be noted: three replicates. How it is done: Fig. 1 Evidence for selective sRANKL inhibition binding site identification. a Proposed small molecule binding site that can be used to distinguish sRANKL from mRANKL. b he probabilities that distances of residue pairs greater than 1.8 Å in sRANKL (red) and mRANKL (blue). The data are calculated based on conformation trajectories from 100 ns MD simulations on sRANKL and mRANKL. c SDRP frequency in sRANKL and mRANKL. d, e The distance of Y236-D303 and K182-R224 in sRANKL and mRANKL after MD simulation. f, g and h Osteoclastogenesis function of single-point mutated rat sRANKL and WT sRANKL. Representative TRAP staining images from one well each, with triplicate repeats wells of BMM cells isolated from C57BL/6 mice cultured with colony-stimulating factor 1 (M-CSF (10 ng/mL) and either varying WT sRANKL or mutated sRANKL (25–200 ng/mL). The number of osteoclasts counted in the osteoclastogenesis assay with mutated sRANKL. Data were presented as group mean ± s.d., n = 3 biological replicates.
as §1
GST-sRANKL was expressed and purified following a previously reported protocol. Rat sRANKL (aa160–318) cDNA was cloned into the bacterial expression vectors pGEX-3X and pGEX-2T with purification GST tag and resultant plasmid named p3rRANKL1. Label-free sRANKL protein in this study was obtained by removing His6-sumo tag from fusion protein His6-sumo-sRANKL. The DNA sequence encoding sRNAKL was inserted downstream the His6-sumo tag of a modified pET20b (+) plasmid. Single point mutations of sRANKL (K182A, R192A, W194A, R224A, H226A, E227A, Q238A, Y242A, H254A, N255A, E270A, K283A, D301A, D303A, or D305A) were constructed by PCR amplification using primer pairs to introduce the designed mutations to pET20b-His6-sumo-sRANKL recombinant plasmid. L-RANKL (binary-RANKL) plasmid was constructed as follow: the consecutive DNA sequence sequentially encoding His6-sumo tag and two sRANKL monomers was cloned into pET20b by PCR amplification using primer pairs to introduce the following restriction enzyme sites to the coding sequences: Nde I-His6-sumo-sRANKL-Bam HI and Bam HI-sRNAKL-Xho I. Each PCR product was double digested with the appropriate restriction enzymes (Thermo) and ligated to the pET20b vector between the Nde I and Xho I sites. Gly-Ser-Gly-Ser was designed to link the two monomers. After confirmed by sequence analysis, the recombinant plasmids were transformed into Escherichia coli BL21 (DE3) cells. The transformed cells were grown in LB media till OD600 about 0.6, then 0.15 mM IPTG was added to induce protein overexpression for 16 h at 20 °C.

“And” between values parts separate entries of the source, which are not always exact repeats. Identical values can stand only once.

With `CCOC(=O)c1sc(NC(=O)C(=NNc2ccc(F)cc2C(=O)O)C(C)=O)nc1C` [S3-14], the CC50 (commonly the concentration giving 50% cytotoxicity) in series [1] came out at 76.2 µM. Moreover, the IC50 (commonly the concentration that inhibits the measured activity by half) in series [2] turned out to be 0.27 µM. The “inhibition of osteoclastogenesis, dose-response (fig. S2a)” value (from here on “inhibition of osteoclastogenesis”) in series [2] (conc. 0.0023464 μM) was 3.265 and -2.857 and -2.551; in series [2] (conc. 0.00774313 μM), 7.2449 and 0.2041 and -2.857; in series [2] (conc. 0.0255523 μM), 7.2449 and 2.041 and 14.2857; in series [2] (conc. 0.0843226 μM), 37.8571 and 28.9796 and 23.4694; in series [2] (conc. 0.278265 μM) it was 54.3878 and 61.4286 and 45.8163; in series [2] (conc. 0.918274 μM), 73.9796 and 67.2449 and 59.2857. The “inhibition of osteoclastogenesis” value in series [2] (conc. 3.0303 μM) is 88.9796 and 96.3265 and 87.7551; in series [2] (conc. 10 μM) it was 98.4694 and 95.7143 and 97.551; in series [2] (conc. 33 μM), 100.

With `CCOC(=O)c1sc(NC(=O)C(=NNc2ccccc2C(=O)OC)C(C)=O)nc1C` [S3-00], the CC50 in series [1] is 57.2 µM. The “inhibition of osteoclastogenesis” value is 7.803 and 2.07 and 1.592 in series [2] (conc. 0.0023464 μM); 3.981 and 7.325 and 13.535 in series [2] (conc. 0.00774313 μM); -1.274 and 4.936 and 3.025 in series [2] (conc. 0.0255523 μM); 10.6688 and 9.713 and 2.07 in series [2] (conc. 0.0843226 μM); 4.936 and 4.4586 and 8.758 in series [2] (conc. 0.278265 μM); 21.1783 and 12.5796 and 14.9681 in series [2] (conc. 0.918274 μM). The “inhibition of osteoclastogenesis” value in series [2] (conc. 3.0303 μM) is 46.9745 and 43.6306 and 45.5414; in series [2] (conc. 10 μM), 57.4841 and 67.9936 and 66.5605; in series [2] (conc. 33 μM) it was 93.3121 and 95.2229 and 92.8344.

Molecule `CC(=O)C(=NNc1ccccc1C(=O)O)C(=O)N1CCc2ccccc2C1` [S3-17] displayed a CC50 in series [1] of 82.1 µM. Moreover, the IC50 in series [2] was 6.74 µM. In addition, the “inhibition of osteoclastogenesis” value was 4.167 and -4.167 and 1.19 in series [2] (conc. 0.0023464 μM); 7.7381 and 11.9048 and 8.036 in series [2] (conc. 0.00774313 μM); 13.9881 and 14.2857 and 19.3452 in series [2] (conc. 0.0255523 μM); 22.9167 and 21.7262 and 26.4881 in series [2] (conc. 0.0843226 μM); 30.3571 and 29.4643 and 30.6548 in series [2] (conc. 0.278265 μM); 35.1191 and 33.0357 and 33.6309 in series [2] (conc. 0.918274 μM). Further, the “inhibition of osteoclastogenesis” value is 38.6905 and 40.1786 and 34.5238 in series [2] (conc. 3.0303 μM); 50.8929 and 50 and 48.8095 in series [2] (conc. 10 μM); 63.3929 and 63.6905 and 75.5952 in series [2] (conc. 33 μM).

In turn, `CC(=O)C(=NNc1ccccc1C(=O)[O-])C(=O)Nc1nc(C)cs1.[Na+]` [S3-12] returned a CC50 in series [1] of 65.8 µM. The “inhibition of osteoclastogenesis” value in series [2] (conc. 0.0023464 μM) was 4.4898 and 6.02 and -2.2449; in series [2] (conc. 0.00774313 μM), 6.939 and -1.02 and -1.633; in series [2] (conc. 0.0255523 μM), 4.796 and 0.8163 and -3.469; in series [2] (conc. 0.0843226 μM), 37.8571 and 16.4286 and 7.857; in series [2] (conc. 0.278265 μM), 39.3878 and 32.9592 and 21.3265; in series [2] (conc. 0.918274 μM), 55.3061 and 47.3469 and 54.0816. The “inhibition of osteoclastogenesis” value in series [2] (conc. 3.0303 μM) was 74.2857 and 67.551 and 64.4898; in series [2] (conc. 10 μM), 94.7959 and 77.0408 and 85; in series [2] (conc. 33 μM), 100.

`COC(=O)c1cccc(NC(=O)C(=NNc2ccccc2C(=O)O)C(C)=O)n1` [S3-15-2] gave a half-maximal cytotoxic concentration (CC50) in series [1] of over 100 µM. Moreover, the concentration for half-maximal inhibition (IC50) in series [2] worked out at 1.26 µM. The “inhibition of osteoclastogenesis” value in series [2] (conc. 0.0023464 μM) is 11.9718 and 6.338 and 4.225; in series [2] (conc. 0.00774313 μM), 7.394 and 8.4507 and 9.155; in series [2] (conc. 0.0255523 μM) it was 9.507 and 6.338 and 9.155; in series [2] (conc. 0.0843226 μM), 31.6901 and 21.831 and 24.2958; in series [2] (conc. 0.278265 μM) it was 33.0986 and 27.4648 and 28.169; in series [2] (conc. 0.918274 μM), 47.1831 and 47.5352 and 44.3662. Moreover, the “inhibition of osteoclastogenesis” value in series [2] (conc. 3.0303 μM) is 59.1549 (2×) and 58.0986; in series [2] (conc. 10 μM), 72.8873 and 71.1268 and 70.4225; in series [2] (conc. 33 μM), 88.3803 and 89.4366 and 88.7324.

`CCOC(=O)c1sc(NC(=O)C(=NNc2c(C)cccc2C(=O)O)C(C)=O)nc1C` [S3-11] registered a CC50 in series [1] of 75.2 µM. For the same molecule, the “inhibition of osteoclastogenesis” value is 6.678 and -7.003 and 1.303 in series [2] (conc. 0.0023464 μM); -5.049 and 1.792 and -0.6515 in series [2] (conc. 0.00774313 μM); -0.6515 and 3.257 and 0.3257 in series [2] (conc. 0.0255523 μM); 5.212 and -2.117 and 3.746 in series [2] (conc. 0.0843226 μM); 16.4495 and 15.9609 and 19.3811 in series [2] (conc. 0.278265 μM); 28.1759 and 21.3355 and 30.1303 in series [2] (conc. 0.918274 μM). Also, the “inhibition of osteoclastogenesis” value in series [2] (conc. 3.0303 μM) was 50.1629 and 34.5277 and 49.6743; in series [2] (conc. 10 μM) it was 97.557 and 94.1368 and 98.0456; in series [2] (conc. 33 μM), 100.

B1: K283A (protein, UniProt Q9ESE2 69-318, looked up, variant K283A)
extracellular domain: LYFRAQMDPNRISEDSTRCFYRILRLRENTGLQDSTLESEDTEALPDSCRRMKQAFQGAVQRELQHIVGPQRFSGVPAMMEGSWLDVARRGKPEAQPFAHLTINAADIPSGSHKVSLSSWYHDRGWAKISNMTLSNGKLRVNQDGFYYLYANICFRHHETSGSVPADYLQLMVYVVKTSIKIPSSHNLMKGGSTKNWSGNSEFHFYSINVGGFFALRAGEEISVQVSNPSLLDPDQDATYFGAFKVQDID
modifications: extracellular domain
In the case of B1, the “osteoclast formation (fig. S4a)” value in series [3] (25 ng/mL) is 4 (2×) and 8; in series [3] (50 ng/mL) it was 11; in series [3] (100 ng/mL), 15 and 19 and 17; in series [3] (200 ng/mL), 23 and 19 and 24.
